Consider one compound from paper PMC5241705 (ACS Infectious Diseases, 2016).

“Also recorded” adds a separate entry of the source. A value given as a limit tells only on which side of the number the result lay.

Test [1] relates to Mtb SRMV2.6 attB::guaB2^Y487C. Type of test: cell-based, Mycobacterium tuberculosis.
The test system of test [2] is Mtb H37Rv attB::guaB2^Y487C. Type of test: cell-based, Mycobacterium tuberculosis.
The next test concerns the target Mtb GuaB2^Y487C (Mycobacterium tuberculosis, UniProt P9WKI7, Y487C). Type of test: biochemical.

Turning to `O=C(C1CCCCC1)N1CCN(S(=O)(=O)c2cccc3cnccc23)CC1` [VCC234718, N-(5-Isoquinolinylsulfonyl)-N’-cyclohexanoyl-piperazine], the MIC90 (usually an inhibitory concentration at the 90% level, which refers to growth in some studies and to a panel of isolates in others) in test [1] was over 200 µM; in test [2] it was over 100 µM. Besides, the “inhibition of Mtb GuaB2^Y487C” value on Mtb GuaB2^Y487C was “inactive; also recorded: refractory to inhibition”.
